Where a SMILES comes first, the peptide text is derived from it. Where no end group is shown, it is not given here. [ ]: non-standard residue; d: D form. Aze = O=C(O)[C@@H]1CCN1
These compounds were tested against T1, IL-1RtI (Homo sapiens, UniProt P14778) (assay: Inhibition of 125I-IL-1α binding to IL-1RtI (Example 3)). Conditions: not given.
T1 construct: made in house; host or cells: recombinant host cells (one form soluble from baculovirus transformed host cells; another PIG-tailed and cleaved from the cell surface)
T1 sequence (P14778 18-336): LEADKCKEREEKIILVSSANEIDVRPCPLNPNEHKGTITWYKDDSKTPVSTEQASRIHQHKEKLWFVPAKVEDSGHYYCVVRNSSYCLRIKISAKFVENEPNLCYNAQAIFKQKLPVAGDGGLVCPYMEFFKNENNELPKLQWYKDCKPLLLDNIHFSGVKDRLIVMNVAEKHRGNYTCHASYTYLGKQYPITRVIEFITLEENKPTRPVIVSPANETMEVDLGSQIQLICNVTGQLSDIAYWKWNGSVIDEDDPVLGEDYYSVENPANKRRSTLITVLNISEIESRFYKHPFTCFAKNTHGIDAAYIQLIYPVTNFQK
Protocol: This example provides the results of experiments conducted to determine an approximate IC50 for certain peptides of the invention. IC50 as used herein refers to the concentration of a compound which will inhibit 50% of the binding between a receptor and its ligand, e.g. IL-1RtI and IL-1. Stock solutions of each peptide were prepared. The appropriate amount of the peptide was dissolved in DMSO, and then nineteen volumes of binding buffer (RPMI 1640, 1% BSA, 20 mM HEPES, pH 7.2-7.3, and 0.1% sodium azide) were added to yield a 1 mM peptide, 5% DMSO stock solution.
One assay utilized a truncated IL-1RtI which had been immobilized on 96-well plates with an appropriate antibody, typically a non-blocking high affinity antibody. In other assays, cells expressing "full-length" IL-1RtI were used with results that yielded IC50 values about 5 to 10 fold lower than those determined using the truncated receptor. The cells were seeded onto Falcon 3072 96-well plates at about 10^5 cells per well, and the plates were incubated overnight at 37° C. in media containing serum. The following morning, the cells were checked to ensure that the cells were confluent and adhered to the bottom of the wells.
According to either assay protocol, the plates were then washed three times with binding buffer, and then 50 μl of binding buffer and 25 μl of a peptide solution (either the stock solution or a dilution thereof; each stock was subjected to five three fold dilutions) were added to each well. Then 25 μl of binding buffer containing ^125 I-IL-1α (final concentration of 90 pM) were added to each well to begin the assay. Each assay was carried out in duplicate. The plates were then incubated for two hours at 4° C. For peptides having particularly high affinities, the assay was run in 24 well plates allowing for higher levels of ligand (possible total volume of 2.5 ml instead of 100 μl in the 96 well plate), thereby minimizing the potential for ligand depletion.
After the two hour incubation, the wells were rinsed three times with ice cold PBS (a semi-automated cell harvesting device was used to conduct the rinse). The receptors or cells were then detached from the plates by adding 100 μl of 0.1N NaOH to each well and incubating the plates at room temperature for 20 minutes. After the 20 minute incubation, about 75 μl of the suspension was counted on a gamma counter, and the IC50 for each peptide was determined using computer assistance and the results of the gamma counting.

Row | IC50 [µM] | Compound
1 | < 0.5 | FTWEESNAYYWQPY-NH2 [FTWEESNAYYWQPY-NH2]
2 | < 0.5 | HIDNTAWYENFLLTYTP [HIDNTAWYENFLLTYTP]
3 | < 0.5 | TYTYDNTAWYERFLMSY [TYTYDNTAWYERFLMSY]

The next lines start with the compound.

Row | Compound | IC50 [µM]
4 | C[C@H](NC(=O)[C@H](CC(N)=O)NC(=O)[C@H](CO)NC(=O)[C@H](CCC(=O)O)NC(=O)[C@H](CCC(=O)O)NC(=O)[C@H](Cc1c[nH]c2ccccc12)NC(=O)[C@@H](NC(=O)[C@@H](N)Cc1ccccc1)[C@@H](C)O)C(=O)N[C@@H](Cc1ccc(O)cc1)C(=O)N[C@@H](Cc1ccc(O)cc1)C(=O)N[C@@H](Cc1c[nH]c2ccccc12)C(=O)N[C@@H](CCC(N)=O)C(=O)N1CC[C@H]1C(=O)N[C@@H](Cc1ccc(O)cc1)C(N)=O [FTWEESNAYYWQJY-NH2] (H-FTWEESNAYYWQ[Aze]Y-NH2) | < 0.5
5 | CC(C)C[C@H](NC(=O)[C@@H]1CCCN1C(=O)[C@H](CC(C)C)NC(=O)[C@H](C)NC(=O)[C@H](Cc1ccc(O)cc1)NC(=O)[C@@H]1CCN1C(=O)[C@H](CCC(N)=O)NC(=O)[C@H](Cc1c[nH]c2ccccc12)NC(=O)[C@H](Cc1ccc(O)cc1)NC(=O)[C@H](Cc1ccc(O)cc1)NC(=O)[C@H](C)NC(=O)[C@H](CC(N)=O)NC(=O)[C@H](CO)NC(=O)[C@H](CCC(=O)O)NC(=O)[C@H](CCC(=O)O)NC(=O)[C@H](Cc1c[nH]c2ccccc12)NC(=O)[C@@H](NC(=O)[C@@H](N)Cc1ccccc1)[C@@H](C)O)C(=O)O [FTWEESNAYYWQJYALPL] (H-FTWEESNAYYWQ[Aze]YALPL-OH) | < 0.5
6 | FEWTPGYWQPYALPL [FEWTPGYWQPYALPL] | < 0.5
7 | QIDNTAWYERFLLQYNA [QIDNTAWYERFLLQYNA] | < 0.5

Same assay, conditions: inhibition of 125I-IL-1α binding to IL-1RtI; soluble peptide unless marked *

Row | IC50 [µM] | Compound
8 | ≤ 0.5 | CC(C)[C@H](NC(=O)[C@H](Cc1c[nH]c2ccccc12)NC(=O)[C@H](CCC(=O)O)NC(=O)[C@@H](N)Cc1ccccc1)C(=O)N1CCC[C@H]1C(=O)NCC(=O)N[C@@H](Cc1ccc(O)cc1)C(=O)N[C@@H](Cc1ccc(O)cc1)C(=O)N[C@@H](CCC(N)=O)C(=O)N1CC[C@H]1C(=O)N[C@@H](Cc1ccc(O)cc1)C(N)=O [FEWVPGYYQJY--NH2] (H-FEWVPGYYQ[Aze]Y-NH2)
9 | ≤ 0.5 | C[C@@H](O)[C@H](NC(=O)[C@H](Cc1c[nH]c2ccccc12)NC(=O)[C@H](CCC(=O)O)NC(=O)[C@@H](N)Cc1ccc(O)cc1)C(=O)N1CCC[C@H]1C(=O)NCC(=O)N[C@@H](Cc1ccc(O)cc1)C(=O)N[C@@H](Cc1ccc(O)cc1)C(=O)N[C@@H](CCC(N)=O)C(=O)N1CC[C@H]1C(=O)N[C@@H](Cc1ccc(O)cc1)C(N)=O [YEWTPGYYQJY--NH2] (H-YEWTPGYYQ[Aze]Y-NH2)
10 | ≤ 100 | ASEWWQPYALPL [ASEWWQ PYALPL]
11 | ≤ 100 | AWVQPYATPLDE [AWVQPYATPLDE]
12 | ≤ 100 | DNTAWYENFLL [DNTAWYENFLL]
13 | ≤ 100 | DYVWEQPYALPL [DYVWEQ PYALPL]
14 | ≤ 100 | DYVWQQPYALPL [DYVWQQ PYALPL]
15 | ≤ 100 | EIMFWQPYALPL [EIMFWQ PYALPL]
16 | ≤ 0.5 | ENTYSPNWADSMYWQPYALPL [ENTYSPNWADSM YWQPYALPL]
17 | ≤ 100 | EWTPGYWQPY-NH2 [EWTPGYWQPY--NH2]
18 | ≤ 100 | FIEWFQPYALPL [FIEWFQ PYALPL]
19 | ≤ 100 | FYEWWQPYALPL [FYEWWQ PYALPL]
20 | ≤ 100 | GWWQPYARGL [GWWQPYARGL]
21 | ≤ 100 | IWYQPYAMPL [IWYQPYAMPL]
22 | ≤ 100 | MWYQPYSSQPAE [MWYQPYSSQPAE]
23 | ≤ 100 | NMVYWQPYSIQT [Peptide 3H7, NMVYWQPYSIQT]
24 | ≤ 100 | NSYFWQPYALPL [NSYFWQ PYALPL]

Row | IC50 [µM] | Compound
25 | ≤ 100 | PWIQPYARGFG [PWIQPYARGFG]
26 | ≤ 100 | RFDYWQPYSDQT [RFDYWQPYSDQT]
27 | ≤ 100 | RFMYWQPYSVQR [RFMYWQPYSVQR]
28 | ≤ 100 | RGDYWQPYSVQS [3H9, 11, RGDYWQPYSVQS]
29 | ≤ 100 | SHLYWQPYSVQ [Peptide 2H2, SHLYWQPYSVQ]
30 | ≤ 100 | SRVWFQPYSLQS [3H1, 6, 12, SRVWFQPYSLQS]
31 | ≤ 0.5 | SWTDYGYWQPYALPISGL [SWTDYG YWQPYA LPISGL]
32 | ≤ 100 | SYDWEQPYALPL [SYDWEQ PYALPL]
33 | ≤ 100 | TIIWEQPYALPL [TIIWEQ PYALPL]
34 | ≤ 100 | WETWYQPYALPL [WETWYQ PYALPL]
35 | ≤ 100 | WLAWEQPYALPL [WLAWEQ PYALPL]
36 | ≤ 100 | WRDSVYWQPYSVQPESA [WRDS VYWQPYSVQ PESA]
37 | ≤ 100 | WWQPYALPL [WWQPYALPL]
38 | ≤ 100 | YFQPYALGL [YFQPYALGL]
39 | ≤ 100 | YWYQPYALPL [YWYQPYALPL]
40 | ≤ 100 | YYQPYALPL [YYQPYALPL]

More lines, now with the values behind:

Row | Compound | IC50 [µM]
41 | AHLFWQPYSVQR [AHLFWQPYSVQR] | ≤ 100
42 | AHTWWQPYALPL [AHTWWQ PYALPL] | ≤ 100
43 | ARFWLQPYALPL [ARFWLQ PYALPL] | ≤ 100
44 | DNSSWYDSFLL [DNSSWYDSFLL] | ≤ 100
45 | DNTAWYESFLA [DNTAWYESFLA] | ≤ 100
46 | DSYWWQPYALPL [DSYWWQ PYALPL] | ≤ 100
47 | DWFQPYSIQSDE [DWFQPYSIQSDE] | ≤ 100
48 | EGWWVQPYALPL [EGWWVQ PYALPL] | ≤ 100
49 | ESFWVQPYALPL [ESFWVQ PYALPL] | > 100
50 | EWYQPYALGWAR [EWYQPYALGWAR] | ≤ 100
51 | FEWTPGYWQPY-NH2 [FEWTPGYWQPY--NH2] | ≤ 0.5
52 | FEWTPGYWQPYALPL [FEWTPGYWQPYALPL] | ≤ 0.5
53 | GVVWYQPYALPL [GVVWYQ PYALPL] | > 100
54 | GWEQPYARGLAG [GWEQPYARGLAG] | ≤ 100
55 | GWTQPYSQQGEV [GWTQPYSQQGEV] | ≤ 100
56 | GWYQPYALGF [GWYQPYALGF] | ≤ 100
57 | GWYQPYVDGWR [GWYQPYVDGWR] | ≤ 100
58 | HWGHVYWQPYSVQDDLG [HWGH VYWQPYSVQ DDLG] | ≤ 100
59 | LFEQPYAKALGL [LFEQPYAKALGL] | ≤ 100
60 | QRIWWQPYALPL [QRIWWQ PYALPL] | ≤ 100
61 | RLVYWQPYSVQT [Peptide 3H2, RLVYWQPYSVQT] | ≤ 100

Row | Compound | IC50 [µM]
62 | RPLYWQPYSVQV [RPLYWQPYSVQV] | ≤ 100
63 | RSLYWQPYALPL [RSLYWQ PYALPL] | ≤ 100
64 | RSQYYQPYALPL [RSQYYQ PYALPL] | ≤ 100
65 | RWEQPYVKDGWS [RWEQPYVKDGWS] | ≤ 100
66 | RWWQPYATPL [RWWQPYATPL] | ≤ 100
67 | SDIWYQPYALPL [SDIWYQ PYALPL] | ≤ 100
68 | SRIWCQPYALPL [SRIWCQ PYALPL] | ≤ 100
69 | SVGEDHNFWTSEYWQPYALPL [SVGEDHNFWTSE YWQPYALPL] | ≤ 0.5
70 | SWHSVYWQPYSVQSVPE [SWHS VYWQPYSVQ SVPE] | ≤ 100
71 | TLIYWQPYSVQI [TLIYWQPYSVQI] | ≤ 100
72 | TLVYWQPYSLQT [Peptide H3, TLVYWQPYSLQT] | ≤ 100
73 | VHVYWQPYSVQT [Peptide 3H5, VHVYWQPYSVQT] | ≤ 100
74 | VIEWWQPYALPL [VIEWWQ PYALPL] | ≤ 100
75 | VWYWEQPYALPL [VWYWEQ PYALPL] | ≤ 100
76 | VYWQPYSVQ [VYWQPYSVQ] | ≤ 100
77 | WGEWLQPYALPL [WGEWLQ PYALPL] | ≤ 100
78 | WGNWWQPYSVHR [WGNWWQPYSVHR] | > 100
79 | YFQPYALPF [YFQPYALPF] | > 100
80 | YWYQPYALGL [YWYQPYALGL] | ≤ 100
81 | YYSWQPYALPL [YYSWQ PYALPL] | > 100
82 | YYTWQQPYALPL [YYTWQQ PYALPL] | > 100

Reference: patent publication US5861476A, “Peptides and compounds that bind to the IL-1 receptor” (Affymax Technologies N.V., priority 1995, dated 1999)
